Experimental data from ChEMBL document CHEMBL5150034, “Design, synthesis, molecular docking and pharmacological evaluation of novel triazine-based triazole derivatives as potential anticonvulsant agents” (Bioorg Med Chem Lett, 2022).

Legend:
Mus musculus [1] = test: Anticonvulsant activity in MES induced mouse model of seizure assessed as protection against seizure at 1 mmol/Kg, ip relative to control; assay type: functional
Mus musculus [2] = test: Anticonvulsant activity in PTZ induced mouse model of seizure assessed as protection against seizure at 1 mmol/Kg, ip relative to control; assay type: functional
Mus musculus [3] = test: Anticonvulsant activity in ip dosed mouse model of seizure; assay type: functional
[4] = Toxicity in ip dosed mouse; assay type: organism-based; settings: in vivo
[5] = Therapeutic index, ratio of LD50 for toxicity in ip dosed mouse to ED50 for anticonvulsant activity in ip dosed mouse model of seizure; assay type: organism-based; settings: in vivo, read-out: TI
[6] = Protective index, ratio of TD50 for toxicity in ip dosed mouse to ED50 for anticonvulsant activity in ip dosed mouse model of seizure; assay type: organism-based; settings: in vivo, read-out: Ratio TD50/ED50

SMILES | Activity (Mus musculus [1]) | Activity (Mus musculus [2]) | ED50 (Mus musculus [3]) | TD50 [4] | selectivity ratio [5] | selectivity ratio [6]
CC(=O)c1nnn(-c2nc(Cl)nc(Cl)n2)c1NCc1cc(F)c(F)c(F)c1 | 67% | 75% |  |  |  | 
CC(=O)c1nnn(-c2nc(Cl)nc(Cl)n2)c1NCc1ccccc1 | 33% | 48% |  |  |  | 
CC(=O)c1nnn(-c2nc(Cl)nc(Cl)n2)c1NCc1ccc(F)cc1 | 100% | 100% | 0.34 mmol/kg | 0.89 mmol/kg | 3.35 | 2.61
CC(=O)c1nnn(-c2nc(Cl)nc(Cl)n2)c1NCc1ccc(Cl)cc1 | 100% | 100% | 0.39 mmol/kg | 0.93 mmol/kg | 2.76 | 2.38
CC(=O)c1nnn(-c2nc(Cl)nc(Cl)n2)c1NCc1cc(F)cc(F)c1 | 83% | 100% | 0.46 mmol/kg | 0.97 mmol/kg | 2.21 | 2.1
CC(=O)c1nnn(-c2nc(Cl)nc(Cl)n2)c1NCc1ccc([N+](=O)[O-])cc1 | 100% | 100% | 0.27 mmol/kg | 0.83 mmol/kg | 4.14 | 3.07
CC(=O)c1nnn(-c2nc(Cl)nc(Cl)n2)c1NCc1ccc(C(F)(F)F)cc1 | 100% | 100% | 0.21 mmol/kg | 0.79 mmol/kg | 5.61 | 3.76
CC(=O)c1nnn(-c2nc(Cl)nc(Cl)n2)c1NCc1ccc(C)cc1 | 25% | 39% |  |  |  | 
COc1ccc(CNc2c(C(C)=O)nnn2-c2nc(Cl)nc(Cl)n2)cc1 | 10% | 25% |  |  |  | 
CC(=O)c1nnn(-c2nc(Cl)nc(Cl)n2)c1NCc1ccc(O)cc1 | 18% | 33% |  |  |  | 
Cc1ccccc1-n1c(C)nc2ccccc2c1=O [METHAQUALONE] | 100% | 100% | 1.46 mmol/kg | 1.64 mmol/kg | 1.4 | 1.12
CCCC(CCC)C(=O)O [VALPROIC ACID] | 100% | 100% | 4.61 mmol/kg | 9.63 mmol/kg | 2.59 | 2.08
